The target of the experiment is T1, Human complement C1s enzyme (Homo sapiens, UniProt P09871).
T1 construct: purified from human serum, Complement Technology, Inc; purchased Complement Technology, Inc; host or cells: human serum
T1 sequence (P09871 438-688 limits assumed): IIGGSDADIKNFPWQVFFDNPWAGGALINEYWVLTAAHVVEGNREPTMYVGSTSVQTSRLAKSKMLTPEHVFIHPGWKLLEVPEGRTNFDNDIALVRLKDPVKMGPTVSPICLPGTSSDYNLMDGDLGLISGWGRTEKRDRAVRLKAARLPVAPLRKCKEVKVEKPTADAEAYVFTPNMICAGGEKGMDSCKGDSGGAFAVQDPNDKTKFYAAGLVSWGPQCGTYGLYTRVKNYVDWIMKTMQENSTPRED
T1 sequence (P09871 16-437 partner limits assumed): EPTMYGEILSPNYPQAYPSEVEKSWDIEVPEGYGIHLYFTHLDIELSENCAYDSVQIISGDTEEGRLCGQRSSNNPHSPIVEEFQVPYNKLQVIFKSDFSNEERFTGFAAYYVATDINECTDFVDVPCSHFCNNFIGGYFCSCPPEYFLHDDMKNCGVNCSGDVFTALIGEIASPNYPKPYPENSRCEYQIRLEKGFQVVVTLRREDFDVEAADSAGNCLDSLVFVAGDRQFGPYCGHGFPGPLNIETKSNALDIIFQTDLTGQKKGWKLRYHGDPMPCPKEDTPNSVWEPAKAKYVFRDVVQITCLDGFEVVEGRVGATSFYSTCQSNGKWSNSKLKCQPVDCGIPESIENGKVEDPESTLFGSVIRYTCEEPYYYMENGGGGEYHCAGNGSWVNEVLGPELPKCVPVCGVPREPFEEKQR
Nature of the experiment: Human C1s Enzyme Assay. The class given is biochemical. The conditions noted are these: human C1s 1.16 nM, 5 min preincubation, substrate Z-L-Lys-SBzl 100 μM, A405; read-out: C1s Protease Activity. An outline of the steps: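 C1s purified from human serum (1.16 nM final) was preincubated with compound for 5 min at room temperature in 50 mM Tris, 1 M NaCl, pH 7.5. Z-L-Lys-SBzl and DTNB were then added at 100 μM each, and A405 was followed for 30 min. IC50 came from nonlinear regression of reaction rates.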

With `C[C@@]12C[C@@H]1N(C(=O)CNC(=O)c1ccc(Oc3ccccc3)cc1)[C@H](C(=O)NCc1cc(C(N)=O)cs1)C2` [Compound 8, (1S,3S,5S)-N-((4-carbamoylthiophen-2-yl)methyl)-5-methyl-2-((4-phenoxybenzoyl)-glycyl)-2-azabicyclo[3.1.0]hexane-3-carboxamide], the IC50 was more than 1000 nM.
The value for `N=C(N)c1csc([C@@H](NC(=O)[C@@H]2CC3(CN2C(=O)CNC(=O)CCCOc2ccccc2)OCCO3)C2CC2)c1` [Compound 178, (S)-N-((S)-(4-carbamimidoylthiophen-2-yl)(cyclopropyl)methyl)-7-((4-phenoxybutanoyl)glycyl)-1,4-dioxa-7-azaspiro[4.4]nonane-8-carboxamide] was more than 1000 nM; that for `Cc1ccccc1[C@@H]1C[C@@H](C(=O)NCc2cc(C(=N)N)cs2)N(C(=O)CNC(=O)CCCOc2ccccc2)C1` [Compound 155, (2S,4S)-N-((4-carbamimidoylthiophen-2-yl)methyl)-1-((4-phenoxybutanoyl)glycyl)-4-(o-tolyl)pyrrolidine-2-carboxamide] was less than 100 nM.
The value for `CS[C@@H]1C[C@@H](C(=O)NCc2cc(C(=N)N)cs2)N(C(=O)CNC(=O)c2ccc(Oc3ccccc3)cc2)C1` [Compound 45, (2S,4R)-N-((4-carbamimidoylthiophen-2-yl)methyl)-4-(methylthio)-1-((4-phenoxy-benzoyl)glycyl)pyrrolidine-2-carboxamide] was less than 100 nM; that for `C[C@@]12C[C@@H]1N(C(=O)CNC(=O)c1ccc(Oc3ccccc3)cc1)[C@H](C(=O)NCc1ccc3onc(N)c3c1)C2` [Compound 67, (1S,3S,5S)-N-((3-aminobenzo[d]isoxazol-5-yl)methyl)-5-methyl-2-((4-phenoxy-benzoyl)glycyl)-2-azabicyclo[3.1.0]hexane-3-carboxamide] was more than 1000 nM; that for `N=C(N)c1csc([C@@H](NC(=O)[C@@H]2CC3(CN2C(=O)CNC(=O)CCCOc2ccccc2)OCCO3)c2ccccc2)c1` [Compound 217, (S)-N-((S)-(4-carbamimidoylthiophen-2-yl)(phenyl)methyl)-7-((4-phenoxybutanoyl)glycyl)-1,4-dioxa-7-azaspiro[4.4]nonane-8-carboxamide] was more than 1000 nM.
For the molecule `N=C(N)c1csc(CNC(=O)[C@@H]2C[C@@H](C3CCCCC3)CN2C(=O)CNC(=O)c2ccc(Oc3ccccc3)cc2)c1` [Compound 61, (2S,4S)-N-((4-carbamimidoylthiophen-2-yl)methyl)-4-cyclohexyl-1-((4-phenoxy-benzoyl)glycyl)pyrrolidine-2-carboxamide], the IC50 was in the range of 100 to 1000 nM.
Then `C[C@H](Oc1ccc(C(=O)NCC(=O)N2[C@H]3C[C@@]3(C)C[C@H]2C(=O)NCc2cc(C(=N)N)cs2)cc1)c1ccccc1` [Compound 212, (1S,3S,5S)-N-((4-carbamimidoylthiophen-2-yl)methyl)-5-methyl-2-((4-((S)-1-phenylethoxy)benzoyl)glycyl)-2-azabicyclo[3.1.0]hexane-3-carboxamide], with less than 100 nM; and `N=C(N)c1csc(CNC(=O)[C@@H]2C[C@@H](N3CCCC3)CN2C(=O)CNC(=O)c2ccc(Oc3ccccc3)cc2)c1` [Compound 48, (3′R,5'S)-N-((4-carbamimidoylthiophen-2-yl)methyl)-1′-((4-phenoxybenzoyl)glycyl)-[1,3′-bipyrrolidine]-5′-carboxamide], with less than 100 nM; and `C[C@@H](NC(=O)[C@@H]1C[C@@H](Oc2ccccc2)CN1C(=O)CNC(=O)CCCOc1ccccc1)c1cc(C(=N)N)cs1` [Compound 111, (2S,4R)-N-((R)-1-(4-carbamimidoylthiophen-2-yl)ethyl)-4-phenoxy-1-((4-phenoxy-butanoyl)glycyl)pyrrolidine-2-carboxamide], with less than 100 nM.
Then `C[C@@]12C[C@@H]1N(C(=O)CNC(=O)c1ccc(Oc3ccccc3)cc1)[C@H](C(=O)N1CCc3c(C(=N)N)csc3C1)C2` [Compound 112, N-(2-((1S,3S,5S)-3-(3-carbamimidoyl-4,5,6,7-tetrahydrothieno[2,3-c]pyridine-6-carbonyl)-5-methyl-2-azabicyclo[3.1.0]hexan-2-yl)-2-oxoethyl)-4-phenoxybenzamide], with 100 to 1000 nM; and `C[C@@H](NC(=O)[C@@H]1C[C@@]23COCCC/C=C/CCCCCCCCC(=O)N[C@@H](CCOc4ccccc4)C(=O)NCC(=O)N1[C@H]2C3)c1cc(C(=N)N)cs1` [Compound 250, (1R,19S,25S,28S,E)-N-((R)-1-(4-carbamimidoylthiophen-2-yl)ethyl)-17,20,23-trioxo-19-(2-phenoxyethyl)-3-oxa-18,21,24-triazatricyclo[22.2.2.0^1,25]octacos-7-ene-28-carboxamide], with less than 100 nM.
Consider `C[C@@H](NC(=O)[C@@H]1CC2(CN1C(=O)CNC(=O)CCCOc1ccccc1)OCCO2)c1cc(C(=N)N)cs1` [Compound 115, (S)-N-((R)-1-(4-carbamimidoylthiophen-2-yl)ethyl)-7-((4-phenoxybutanoyl)glycyl)-1,4-dioxa-7-azaspiro[4.4]nonane-8-carboxamide], for which the IC50 is less than 100 nM.
The value for `C[C@@H](NC(=O)[C@@H]1C[C@]2(COCC(=O)O)C[C@@H]2N1C(=O)CNC(=O)CCCOc1ccccc1)c1cc(C(=N)N)cs1` [Compound 148, 2-(((1S,3S,5R)-3-(((R)-1-(4-carbamimidoylthiophen-2-yl)ethyl)carbamoyl)-2-((4-phenoxybutanoyl)glycyl)-2-azabicyclo[3.1.0]hexan-5-yl)methoxy)acetic acid] was less than 100 nM.
Then `CO[C@@H]1C[C@@H](C(=O)N[C@H](C)c2cc(C(=N)N)cs2)N(C(=O)CNC(=O)c2ccc(Oc3ccccc3)cc2)C1` [Compound 185, (2S,4R)-N-((R)-1-(4-carbamimidoylthiophen-2-yl)ethyl)-4-methoxy-1-((4-phenoxybenzoyl)glycyl)pyrrolidine-2-carboxamide], with less than 100 nM.
Regarding `C[C@@H](Oc1ccc(C(=O)NCC(=O)N2[C@H]3C[C@@]3(C)C[C@H]2C(=O)NCc2cc(C(=N)N)cs2)cc1)c1ccccc1` [Compound 223, (1S,3S,5S)-N-((4-carbamimidoylthiophen-2-yl)methyl)-5-methyl-2-((4-((R)-1-phenylethoxy)benzoyl)glycyl)-2-azabicyclo[3.1.0]hexane-3-carboxamide], the IC50 was less than 100 nM.
Then `C[C@@]12C[C@@H]1N(C(=O)CNC(=O)CCCOc1ccccc1C(=O)O)[C@H](C(=O)NCc1cc(C(=N)N)cs1)C2` [Compound 186, 2-(4-((2-((1S,3S,5S)-3-(((4-carbamimidoylthiophen-2-yl)methyl)carbamoyl)-5-methyl-2-azabicyclo[3.1.0]hexan-2-yl)-2-oxoethyl)amino)-4-oxobutoxy)benzoic acid], with less than 100 nM; and `CC(C)C[C@@H](NC(=O)[C@@H]1C[C@@H](OC(F)F)CN1C(=O)CNC(=O)c1ccc(Oc2ccccc2)cc1)c1cc(C(=N)N)cs1` [Compound 191, (2S,4R)-N-((R)-1-(4-carbamimidoylthiophen-2-yl)-3-methylbutyl)-4-(difluoromethoxy)-1-((4-phenoxybenzoyl)glycyl)pyrrolidine-2-carboxamide], with more than 1000 nM.
Consider `N=C(N)c1csc(CNC(=O)C2CC3(CCC3)CN2C(=O)CNC(=O)CCCOc2ccccc2)c1` (centres unmarked) [Compound 261, N-((4-carbamimidoylthiophen-2-yl)methyl)-6-((4-phenoxybutanoyl)glycyl)-6-azaspiro[3.4]octane-7-carboxamide], for which the IC50 is less than 100 nM.
Then `N=C(N)c1csc(CNC(=O)[C@@H]2C[C@]3(CCO3)CN2C(=O)CNC(=O)c2ccc(Oc3ccccc3)cc2)c1` [Compound 195, (4S,7S)-N-((4-carbamimidoylthiophen-2-yl)methyl)-6-((4-phenoxybenzoyl)glycyl)-1-oxa-6-azaspiro[3.4]octane-7-carboxamide], with less than 100 nM.
For `C[C@@H](NC(=O)[C@@H]1CC2(CN1C(=O)CNC(=O)c1ccccc1)OCCO2)c1cc(C(=N)N)cs1` [Compound 264, (S)-7-(benzoylglycyl)-N-((R)-1-(4-carbamimidoylthiophen-2-yl)ethyl)-1,4-dioxa-7-azaspiro[4.4]nonane-8-carboxamide], the IC50 is less than 100 nM.
Take `N=C(N)c1csc(CNC(=O)[C@@H]2CCC(=O)N2C(=O)CNC(=O)c2ccc(Oc3ccccc3)cc2)c1` [Compound 7, (S)-N-((4-carbamimidoylthiophen-2-yl)methyl)-5-oxo-1-((4-phenoxybenzoyl)glycyl)-pyrrolidine-2-carboxamide]: the IC50 is less than 100 nM.
As for `C[S@](=N)(=O)[C@@H]1C[C@@H](C(=O)NCc2cc(C(=N)N)cs2)N(C(=O)CNC(=O)c2ccc(Oc3ccccc3)cc2)C1` [Compound 68, (2S,4R)-N-((4-carbamimidoylthiophen-2-yl)methyl)-4-((S)-S-methylsulfonimidoyl)-1-((4-phenoxybenzoyl)glycyl)pyrrolidine-2-carboxamide], the IC50 is less than 100 nM.

The values above are taken from patent US20250171423A1, “PHARMACEUTICAL COMPOUNDS FOR THE TREATMENT OF COMPLEMENT MEDIATED DISORDERS” (Achillion Pharmaceuticals, Inc., priority 2020, published 2025).
